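Cultured in 96-well plates, cells were exposed to test compound for 48 hours across five concentrations. At the GI50, growth is halved. TGI is the concentration that stops growth completely.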 Bounds are passed on as bounds.

Some test systems named below: 786-0 renal; KM12 colon; SW-620 colon; SNB-75 CNS; M14 melanoma; HS 578T breast; MCF7 breast; ACHN renal; SF-295 CNS; IGROV1 ovarian.
Holding throughout (assay): NCI anticancer screen, dose series, 48 h

Turning to `COc1cc(/C=C/C(=O)c2ccc(Nc3nc(Nc4ccc(F)cc4)nc(Nc4ccc(F)cc4)n3)cc2)cc(OC)c1OC`, the GI50 in the test on 786-0 renal was 2.66 µM; in the test on KM12 colon, 8.79 µM; with SW-620 colon, 7.28 µM; in the test with SNB-75 CNS, above 100 µM; with M14 melanoma, 6.55 µM; in the test with HS 578T breast, 16.7 µM. The GI50 in the test on MCF7 breast was 5.26 µM; in the test with ACHN renal it was 21.2 µM; with SF-295 CNS, 28.8 µM; in the test with IGROV1 ovarian it was 3.59 µM. Besides, the TGI was 12 µM in the test on 786-0 renal; above 100 µM in the test with KM12 colon; above 100 µM in the test on SW-620 colon; above 100 µM with SNB-75 CNS; 90.8 µM in the test on M14 melanoma; above 100 µM in the test on HS 578T breast. Also, the TGI in the test on MCF7 breast, in the test with ACHN renal, in the test on SF-295 CNS and in the test with IGROV1 ovarian was above 100 µM in each case.

As to `O=C(CC1C(=O)Nc2ccccc2S1=O)Nc1cccc(Cl)c1` (stereo not given), the TGI with 786-0 renal was above 100 µM; in the test with KM12 colon, above 81.5 µM; with SW-620 colon, above 100 µM; in the test with SNB-75 CNS it was 64.1 µM; in the test on M14 melanoma it was above 65 µM; in the test with HS 578T breast it was above 100 µM. For the same compound, the TGI was 29.9 µM in the test with MCF7 breast, above 100 µM in the test on ACHN renal, above 100 µM in the test on SF-295 CNS and above 67.1 µM with IGROV1 ovarian.

As to `NC(=O)NC(=O)CI`, the GI50 in the test with 786-0 renal was 4.7 µM; in the test with KM12 colon, 18.2 µM; with SW-620 colon, 1.68 µM; in the test with SNB-75 CNS it was 15.2 µM; in the test on M14 melanoma it was 5.12 µM; with HS 578T breast, 15.8 µM. In addition, the GI50 was 3.33 µM with MCF7 breast, 1.78 µM with ACHN renal, 23.9 µM with SF-295 CNS and 3.67 µM in the test on IGROV1 ovarian. Besides, the TGI in the test with 786-0 renal was determined as 13.5 µM; in the test with KM12 colon it was 35.5 µM; in the test on SW-620 colon, 3.57 µM; in the test with SNB-75 CNS it was 29.4 µM; with M14 melanoma it was 17.4 µM; in the test on HS 578T breast it was 47.8 µM. Also, the TGI with MCF7 breast is 16.6 µM; in the test with ACHN renal, 3.39 µM; in the test on SF-295 CNS, above 57.7 µM; in the test with IGROV1 ovarian, 11.5 µM.

Take `CC(=O)Nc1ccc(C(=O)N[C@@H]2C(=O)N3[C@@H]2SC(C)(C)[C@@H]3C(=O)O)cn1`: the TGI in the test on 786-0 renal, in the test on KM12 colon, in the test with SW-620 colon, in the test with SNB-75 CNS, in the test with M14 melanoma and in the test on HS 578T breast was above 100 µM in each case. Moreover, the TGI in the test with MCF7 breast, in the test on ACHN renal, in the test with SF-295 CNS and in the test with IGROV1 ovarian was above 100 µM throughout.

As for `Cc1ccc(Cl)cc1Nc1nc(C(F)(F)F)ccc1C(=O)Oc1ccc(Cl)cc1`, the GI50 in the test with 786-0 renal is 14.3 µM; with KM12 colon, 21.6 µM; with SW-620 colon, 17 µM; in the test with SNB-75 CNS, 6.57 µM; with M14 melanoma it was 18.1 µM; in the test with HS 578T breast it was 3.13 µM. Also, the GI50 in the test on MCF7 breast is 16.8 µM; with ACHN renal it was 5.16 µM; with SF-295 CNS it was 7.08 µM; with IGROV1 ovarian, 11.1 µM. Further, the TGI with 786-0 renal was 30.8 µM; in the test on KM12 colon it was 63.6 µM; with SW-620 colon, above 100 µM; with SNB-75 CNS, 23.3 µM; in the test on M14 melanoma, above 100 µM; in the test with HS 578T breast it was 14.8 µM. Further, the TGI is above 100 µM in the test on MCF7 breast, 18 µM in the test on ACHN renal, 21.7 µM in the test on SF-295 CNS and above 100 µM in the test on IGROV1 ovarian.

Turning to `O=Cc1ccc(C(F)(F)F)cc1.[C-]#[O+].[C-]#[O+].[C-]#[O+].[Cr]`, the GI50 with 786-0 renal was 13.1 µM; in the test with KM12 colon, 24.6 µM; in the test with SW-620 colon it was 30.9 µM; in the test on SNB-75 CNS, 15.6 µM; with M14 melanoma, 12.9 µM; with HS 578T breast, 24.6 µM. Besides, the GI50 in the test on MCF7 breast is 24.7 µM; in the test with ACHN renal, 30.2 µM; in the test on SF-295 CNS it was 38.1 µM; in the test on IGROV1 ovarian, 18.7 µM. Also, the TGI was 44.1 µM with 786-0 renal; 91.5 µM with KM12 colon; above 100 µM in the test on SW-620 colon; 49.5 µM in the test with SNB-75 CNS; 37 µM with M14 melanoma; 75.9 µM in the test on HS 578T breast. The TGI with MCF7 breast, with ACHN renal, in the test with SF-295 CNS and in the test on IGROV1 ovarian was above 100 µM each time.

For the compound `Cc1nc2cc(O)c(O)cc2cc1Oc1ccc(NC(=O)Nc2ccc(Cl)c(Cl)c2)cc1`, the GI50 in the test with 786-0 renal is 7.68 µM; in the test on KM12 colon, 9.64 µM; in the test on SW-620 colon, 4.8 µM; in the test on SNB-75 CNS it was 7.73 µM; with M14 melanoma, 5.97 µM; in the test on HS 578T breast it was 12.8 µM. The GI50 was 8.71 µM in the test on MCF7 breast, 3.37 µM in the test with ACHN renal, 11.4 µM with SF-295 CNS and 12.3 µM in the test on IGROV1 ovarian. Further, the TGI with 786-0 renal was 18.6 µM; in the test on KM12 colon, 32 µM; in the test with SW-620 colon, above 32.5 µM; with SNB-75 CNS it was 28.9 µM; in the test on M14 melanoma, 13.8 µM; in the test with HS 578T breast, above 32.5 µM. Moreover, the TGI is above 32.5 µM in the test with MCF7 breast, 17.9 µM in the test on ACHN renal, above 32.5 µM with SF-295 CNS and above 32.5 µM with IGROV1 ovarian.

Regarding `CC(C)(C)NNc1c([N+](=O)[O-])cnn(-c2ccccc2)c1=O`, the TGI in the test with 786-0 renal came out at 13.4 µM; in the test with KM12 colon, 24.5 µM; with SW-620 colon, 3.41 µM; in the test with SNB-75 CNS it was 23.8 µM; in the test on M14 melanoma, 4.88 µM; with HS 578T breast it was 26.1 µM. The TGI with MCF7 breast stood at 14.1 µM; in the test on ACHN renal, 16.4 µM; in the test on SF-295 CNS, 20.1 µM; with IGROV1 ovarian, 38.6 µM.

As for `O=C(O)/C(Cl)=C(/Cl)C(=O)Nc1cccc(Cl)c1`, the TGI in the test with 786-0 renal was found to be 31.8 µM; in the test with KM12 colon, 47.7 µM; in the test on SW-620 colon, 32.1 µM; with SNB-75 CNS it was 40.1 µM; in the test with M14 melanoma it was 43.2 µM; with HS 578T breast, 71.6 µM. The TGI was 62.8 µM with MCF7 breast, 36.8 µM with ACHN renal, above 62.2 µM in the test on SF-295 CNS and 39 µM in the test on IGROV1 ovarian.

As to `CCOC1NC(=O)Oc2ccccc21` (stereo not given), the TGI with 786-0 renal, in the test with KM12 colon, in the test with SW-620 colon, in the test on SNB-75 CNS, with M14 melanoma and in the test with HS 578T breast was above 100 µM in each case. In addition, the TGI in the test with MCF7 breast, with ACHN renal, in the test on SF-295 CNS and in the test on IGROV1 ovarian was above 100 µM throughout.

For the origin of these results see PubChem BioAssay (NCI).
